# Laboratory results as given in ChEMBL document CHEMBL4265896, “Design and synthesis of potent RSK inhibitors” (Bioorg Med Chem Lett, 2018).
# Tests used:
# [1] = target: T1, Ribosomal protein S6 kinase alpha-3 (Homo sapiens, UniProt P51812); assay: Inhibition of RSK2 (unknown origin)
# [2] = target: T1, Ribosomal protein S6 kinase alpha-3; assay: Inhibition of RSK2 (unknown origin) assessed as reduction in YB1 […] phosphorylation
# [3] = Solubility of the compound in PBS buffer of pH 7.0; type: physicochemical
# [4] = target: T2, Tyrosine-protein kinase receptor UFO (Homo sapiens, UniProt P30530); assay: Inhibition of AXL (unknown origin)
# T2 sequence (P30530 whole entry): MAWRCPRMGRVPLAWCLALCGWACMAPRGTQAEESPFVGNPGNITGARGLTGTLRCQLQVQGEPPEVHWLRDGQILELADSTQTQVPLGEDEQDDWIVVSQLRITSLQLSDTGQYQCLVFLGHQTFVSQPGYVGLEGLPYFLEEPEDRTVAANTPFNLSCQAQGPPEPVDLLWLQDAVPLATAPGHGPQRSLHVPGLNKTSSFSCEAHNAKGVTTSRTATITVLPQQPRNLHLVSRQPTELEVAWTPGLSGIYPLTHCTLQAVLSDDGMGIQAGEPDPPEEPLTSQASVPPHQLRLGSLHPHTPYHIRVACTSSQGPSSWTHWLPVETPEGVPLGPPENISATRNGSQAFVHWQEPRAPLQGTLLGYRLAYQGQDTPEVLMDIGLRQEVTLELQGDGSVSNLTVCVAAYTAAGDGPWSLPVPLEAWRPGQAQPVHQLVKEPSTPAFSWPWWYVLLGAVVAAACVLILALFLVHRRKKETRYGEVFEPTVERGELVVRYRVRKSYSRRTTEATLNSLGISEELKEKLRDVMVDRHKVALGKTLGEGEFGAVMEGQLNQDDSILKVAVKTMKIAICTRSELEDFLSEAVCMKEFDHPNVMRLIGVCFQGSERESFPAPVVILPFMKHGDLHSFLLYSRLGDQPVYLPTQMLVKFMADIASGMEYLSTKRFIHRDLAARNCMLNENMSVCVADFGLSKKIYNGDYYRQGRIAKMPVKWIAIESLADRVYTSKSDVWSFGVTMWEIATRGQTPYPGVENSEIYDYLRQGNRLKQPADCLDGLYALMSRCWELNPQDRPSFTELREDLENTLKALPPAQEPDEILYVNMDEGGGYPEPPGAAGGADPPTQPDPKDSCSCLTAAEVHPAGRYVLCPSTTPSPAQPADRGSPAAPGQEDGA
# [5] = Efflux ratio of permeability of the compound in human Caco2 cells; type: ADME, cell-based; conditions: Caco-2
# [6] = target: Tyrosine-protein kinase JAK1 (Homo sapiens, UniProt P23458); assay: Inhibition of JAK1 (unknown origin)
# [7] = target: Tyrosine-protein kinase JAK2 (Homo sapiens, UniProt O60674); assay: Inhibition of JAK2 (unknown origin)
# [8] = target: Fibroblast growth factor receptor 1 (Homo sapiens, UniProt P11362); assay: Inhibition of FGFR1 (unknown origin)
# [9] = target: Fibroblast growth factor receptor 2 (Homo sapiens, UniProt P21802); assay: Inhibition of FGFR2 (unknown origin)
# [10] = target: Vascular endothelial growth factor receptor 2 (Homo sapiens, UniProt P35968); assay: Inhibition of KDR (unknown origin)
# [11] = target: Proto-oncogene tyrosine-protein kinase receptor Ret (Homo sapiens, UniProt P07949); assay: Inhibition of RET (unknown origin)
# [12] = target: Ribosomal protein S6 kinase beta-1 (Homo sapiens, UniProt P23443); assay: Inhibition of RPS6KB1 (unknown origin)
# [13] = target: T3, Receptor-type tyrosine-protein kinase FLT3 (Homo sapiens, UniProt P36888); assay: Inhibition of FLT3 (unknown origin)
# T3 sequence (P36888 whole entry): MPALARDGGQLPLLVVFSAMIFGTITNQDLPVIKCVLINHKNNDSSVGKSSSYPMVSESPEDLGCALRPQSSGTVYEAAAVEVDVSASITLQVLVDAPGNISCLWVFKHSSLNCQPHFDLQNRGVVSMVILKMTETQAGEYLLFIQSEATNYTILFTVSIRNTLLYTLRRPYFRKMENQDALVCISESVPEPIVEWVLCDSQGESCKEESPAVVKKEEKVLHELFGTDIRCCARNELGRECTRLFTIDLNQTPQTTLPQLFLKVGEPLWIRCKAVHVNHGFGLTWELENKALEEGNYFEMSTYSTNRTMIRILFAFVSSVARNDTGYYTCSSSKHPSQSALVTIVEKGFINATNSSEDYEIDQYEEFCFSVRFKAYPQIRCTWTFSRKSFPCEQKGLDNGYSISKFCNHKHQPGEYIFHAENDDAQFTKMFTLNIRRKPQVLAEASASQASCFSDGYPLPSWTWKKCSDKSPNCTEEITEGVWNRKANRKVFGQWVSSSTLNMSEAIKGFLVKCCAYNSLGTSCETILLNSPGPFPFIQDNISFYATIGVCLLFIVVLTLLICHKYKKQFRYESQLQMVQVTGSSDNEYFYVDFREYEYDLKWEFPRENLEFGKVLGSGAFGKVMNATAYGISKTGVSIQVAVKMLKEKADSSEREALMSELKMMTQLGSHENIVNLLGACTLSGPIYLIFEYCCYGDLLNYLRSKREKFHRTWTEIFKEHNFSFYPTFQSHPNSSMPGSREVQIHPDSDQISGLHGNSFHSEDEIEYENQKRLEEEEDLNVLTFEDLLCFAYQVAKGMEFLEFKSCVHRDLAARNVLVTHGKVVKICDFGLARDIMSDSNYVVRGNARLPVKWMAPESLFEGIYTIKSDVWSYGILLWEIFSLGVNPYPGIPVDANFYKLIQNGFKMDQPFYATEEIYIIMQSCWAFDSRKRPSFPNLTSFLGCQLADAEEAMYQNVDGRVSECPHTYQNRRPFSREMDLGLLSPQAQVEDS
# T1 sequence (P51812 whole entry): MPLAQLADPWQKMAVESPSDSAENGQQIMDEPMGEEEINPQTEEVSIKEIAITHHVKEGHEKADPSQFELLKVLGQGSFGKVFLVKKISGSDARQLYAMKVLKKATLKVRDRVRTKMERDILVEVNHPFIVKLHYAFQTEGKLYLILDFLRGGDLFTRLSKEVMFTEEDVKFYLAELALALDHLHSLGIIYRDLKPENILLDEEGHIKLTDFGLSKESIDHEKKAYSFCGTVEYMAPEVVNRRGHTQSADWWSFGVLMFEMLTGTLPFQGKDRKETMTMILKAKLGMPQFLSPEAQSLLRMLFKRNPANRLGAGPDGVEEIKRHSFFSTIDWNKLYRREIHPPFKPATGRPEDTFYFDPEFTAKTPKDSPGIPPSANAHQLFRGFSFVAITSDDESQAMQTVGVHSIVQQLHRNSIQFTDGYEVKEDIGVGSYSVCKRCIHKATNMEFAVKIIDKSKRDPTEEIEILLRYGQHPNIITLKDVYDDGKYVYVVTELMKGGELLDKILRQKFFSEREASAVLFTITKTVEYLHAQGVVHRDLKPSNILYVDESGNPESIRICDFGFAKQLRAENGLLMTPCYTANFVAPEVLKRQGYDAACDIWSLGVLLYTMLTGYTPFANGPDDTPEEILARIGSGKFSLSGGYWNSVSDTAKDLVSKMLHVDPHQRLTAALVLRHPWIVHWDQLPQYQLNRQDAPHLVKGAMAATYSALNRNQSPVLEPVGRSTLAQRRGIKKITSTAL
# Sequence of Tyrosine-protein kinase JAK1 (P23458 whole entry): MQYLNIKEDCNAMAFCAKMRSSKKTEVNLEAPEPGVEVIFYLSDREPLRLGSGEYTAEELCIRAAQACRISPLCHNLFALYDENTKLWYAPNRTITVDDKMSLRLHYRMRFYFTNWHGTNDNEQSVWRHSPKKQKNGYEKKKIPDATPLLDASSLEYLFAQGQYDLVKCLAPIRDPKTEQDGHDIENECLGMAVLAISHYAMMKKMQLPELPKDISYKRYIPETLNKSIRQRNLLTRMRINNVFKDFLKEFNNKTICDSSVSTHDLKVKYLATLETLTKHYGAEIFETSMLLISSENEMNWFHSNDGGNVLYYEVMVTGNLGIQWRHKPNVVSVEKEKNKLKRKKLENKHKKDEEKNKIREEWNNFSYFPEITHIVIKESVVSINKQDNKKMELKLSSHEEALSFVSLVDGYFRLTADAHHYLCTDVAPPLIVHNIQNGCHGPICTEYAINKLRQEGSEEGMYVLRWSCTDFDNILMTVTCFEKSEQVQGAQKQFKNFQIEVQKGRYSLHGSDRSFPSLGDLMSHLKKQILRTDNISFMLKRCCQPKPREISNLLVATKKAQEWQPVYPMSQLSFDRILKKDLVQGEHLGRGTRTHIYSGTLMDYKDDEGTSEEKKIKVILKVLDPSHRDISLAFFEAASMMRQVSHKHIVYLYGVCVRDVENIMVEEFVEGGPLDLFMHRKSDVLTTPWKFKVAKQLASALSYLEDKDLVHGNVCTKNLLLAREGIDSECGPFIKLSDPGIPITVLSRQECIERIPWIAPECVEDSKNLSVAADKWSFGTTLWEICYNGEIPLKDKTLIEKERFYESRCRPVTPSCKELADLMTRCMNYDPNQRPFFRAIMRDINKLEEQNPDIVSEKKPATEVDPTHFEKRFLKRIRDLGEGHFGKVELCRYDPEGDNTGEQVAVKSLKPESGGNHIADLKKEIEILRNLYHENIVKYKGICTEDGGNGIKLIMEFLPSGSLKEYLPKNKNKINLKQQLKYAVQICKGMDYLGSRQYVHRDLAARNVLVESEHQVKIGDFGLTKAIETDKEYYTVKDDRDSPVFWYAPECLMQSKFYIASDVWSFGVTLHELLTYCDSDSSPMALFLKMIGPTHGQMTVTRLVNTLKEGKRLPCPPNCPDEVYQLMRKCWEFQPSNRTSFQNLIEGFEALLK
# Sequence of Tyrosine-protein kinase JAK2 (O60674 whole entry): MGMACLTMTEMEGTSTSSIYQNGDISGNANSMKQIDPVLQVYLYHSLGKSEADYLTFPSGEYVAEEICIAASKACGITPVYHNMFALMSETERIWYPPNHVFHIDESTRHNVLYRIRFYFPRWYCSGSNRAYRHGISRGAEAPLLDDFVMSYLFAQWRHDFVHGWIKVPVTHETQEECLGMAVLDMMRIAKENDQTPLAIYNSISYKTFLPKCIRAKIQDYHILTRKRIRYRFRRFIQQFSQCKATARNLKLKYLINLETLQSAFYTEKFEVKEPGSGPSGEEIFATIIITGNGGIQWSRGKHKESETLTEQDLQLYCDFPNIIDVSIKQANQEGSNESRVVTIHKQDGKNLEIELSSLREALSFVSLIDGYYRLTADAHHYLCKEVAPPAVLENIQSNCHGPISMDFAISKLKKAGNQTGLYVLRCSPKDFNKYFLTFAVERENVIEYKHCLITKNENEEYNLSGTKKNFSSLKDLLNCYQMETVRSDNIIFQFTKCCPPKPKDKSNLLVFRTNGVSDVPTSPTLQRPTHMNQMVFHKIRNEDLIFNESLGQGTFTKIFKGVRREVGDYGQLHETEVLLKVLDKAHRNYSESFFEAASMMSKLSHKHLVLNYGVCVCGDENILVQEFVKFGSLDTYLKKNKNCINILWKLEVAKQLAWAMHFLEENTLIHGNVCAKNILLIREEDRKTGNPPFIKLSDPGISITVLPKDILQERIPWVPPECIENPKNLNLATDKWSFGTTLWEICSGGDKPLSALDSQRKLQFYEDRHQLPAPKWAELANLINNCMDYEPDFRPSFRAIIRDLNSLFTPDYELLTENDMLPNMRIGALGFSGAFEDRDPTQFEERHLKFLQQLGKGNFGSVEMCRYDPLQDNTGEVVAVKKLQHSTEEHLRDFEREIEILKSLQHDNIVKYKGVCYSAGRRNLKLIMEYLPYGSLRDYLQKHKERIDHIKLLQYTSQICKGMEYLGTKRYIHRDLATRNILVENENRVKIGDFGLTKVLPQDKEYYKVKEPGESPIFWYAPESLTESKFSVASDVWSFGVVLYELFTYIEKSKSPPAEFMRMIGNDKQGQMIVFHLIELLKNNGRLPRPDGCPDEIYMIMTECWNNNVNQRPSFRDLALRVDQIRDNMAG
# Sequence of Fibroblast growth factor receptor 2 (P21802 whole entry): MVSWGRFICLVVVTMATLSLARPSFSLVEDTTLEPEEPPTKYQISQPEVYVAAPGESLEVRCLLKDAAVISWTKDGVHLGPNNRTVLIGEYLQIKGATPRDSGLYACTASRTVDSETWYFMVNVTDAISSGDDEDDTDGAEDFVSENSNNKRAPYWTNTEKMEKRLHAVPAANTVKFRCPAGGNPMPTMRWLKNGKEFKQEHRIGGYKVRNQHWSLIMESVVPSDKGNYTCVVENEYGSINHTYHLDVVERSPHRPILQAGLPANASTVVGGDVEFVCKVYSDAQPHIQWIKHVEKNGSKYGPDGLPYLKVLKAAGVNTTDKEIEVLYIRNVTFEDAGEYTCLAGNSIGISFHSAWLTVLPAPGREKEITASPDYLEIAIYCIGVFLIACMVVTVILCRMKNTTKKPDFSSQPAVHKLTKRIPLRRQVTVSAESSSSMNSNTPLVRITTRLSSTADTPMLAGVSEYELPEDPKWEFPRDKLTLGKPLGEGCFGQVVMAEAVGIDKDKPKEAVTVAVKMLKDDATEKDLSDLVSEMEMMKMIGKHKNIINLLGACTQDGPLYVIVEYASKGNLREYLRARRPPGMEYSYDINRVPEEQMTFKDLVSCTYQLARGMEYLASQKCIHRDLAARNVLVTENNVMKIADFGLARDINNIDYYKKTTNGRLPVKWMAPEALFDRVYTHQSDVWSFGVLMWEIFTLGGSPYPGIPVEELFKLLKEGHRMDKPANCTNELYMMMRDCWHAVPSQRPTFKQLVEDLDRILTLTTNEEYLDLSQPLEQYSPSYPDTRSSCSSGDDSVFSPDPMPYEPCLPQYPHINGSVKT
# Sequence of Ribosomal protein S6 kinase beta-1 (P23443 whole entry): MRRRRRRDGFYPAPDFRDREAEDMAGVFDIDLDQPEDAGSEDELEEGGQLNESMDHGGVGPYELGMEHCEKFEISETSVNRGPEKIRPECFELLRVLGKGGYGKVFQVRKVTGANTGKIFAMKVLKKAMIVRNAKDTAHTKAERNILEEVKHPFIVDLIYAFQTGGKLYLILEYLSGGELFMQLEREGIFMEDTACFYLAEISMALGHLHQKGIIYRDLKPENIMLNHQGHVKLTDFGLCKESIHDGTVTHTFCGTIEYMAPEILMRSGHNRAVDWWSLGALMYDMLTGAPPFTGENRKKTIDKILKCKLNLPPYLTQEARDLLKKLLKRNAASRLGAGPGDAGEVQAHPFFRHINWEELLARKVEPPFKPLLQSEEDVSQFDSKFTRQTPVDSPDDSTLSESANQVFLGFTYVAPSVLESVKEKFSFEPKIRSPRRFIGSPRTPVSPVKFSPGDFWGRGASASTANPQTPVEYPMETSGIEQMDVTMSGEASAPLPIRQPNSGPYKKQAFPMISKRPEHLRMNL
Compound,IC50 [1] [nM],IC50 [2] [nM],other results
CN1CCN(c2ccc(-c3c(-c4ccc(C(F)F)cc4)cnc4[nH]ccc34)cc2)CC1,800,18100,–
CN1CCN(c2ccc(-c3c(-c4ccc(F)cc4)cnc4[nH]ccc34)cc2)CC1,1900,> 20000,–
CN1CCN(c2ccc(-c3c(-c4ccnc(F)c4)cnc4[nH]ccc34)cc2)CC1,1100,> 20000,–
COc1c(F)cc(-c2cnc3[nH]ccc3c2-c2ccc(N3CCN(C)CC3)cc2)cc1F,500,> 20000,–
CN1CCN(c2ccc(-c3c(-c4ccc(N)nc4)cnc4[nH]ccc34)cc2)CC1,810,7200,–

# Now those with a lower IC50 [2], led by results:
IC50 [1] [nM],IC50 [2] [nM],Compound,other results
240,2400,CN1CCN(c2ccc(-c3c(-c4cn[nH]c4)cnc4[nH]ccc34)cc2)CC1,–
–,210,Oc1c(F)cc(-c2cnccc2-c2ccc(N3CCOCC3)cc2)cc1F,–
2,232,Cc1ccc(-c2c(-c3cc(F)c(O)c(F)c3)cnc3[nH]ccc23)cc1,–
2,50,Oc1c(F)cc(-c2cnc3[nH]ccc3c2-c2ccc(N3CCOCC3)cc2)cc1F,solubility [3]: < 0.22 µg/mL
38,6000,CN1CCN(c2ccc(-c3c(-c4cc(F)cc(F)c4)cnc4[nH]ccc34)cc2)CC1,–
–,340,CN1CCN(c2ccc(-c3ccncc3-c3cc(F)c(O)c(F)c3)cc2)CC1,–
0.3,54,CN1CCN(c2ccc(-c3c(-c4cc(F)c(O)c(F)c4)cnc4[nH]ccc34)cc2)CC1,IC50 [4]: < 1000 nM; efflux ratio [5]: 0.8; solubility [3]: 10.3 µg/mL; IC50 [6]: < 1000 nM; IC50 [7]: < 1000 nM; IC50 [8]: < 1000 nM; IC50 [9]: < 1000 nM; IC50 [10]: < 1000 nM; IC50 [11]: < 1000 nM; IC50 [12]: 120 nM; IC50 [13]: 120 nM
20,2800,Oc1ccc(-c2cn[nH]c2-c2ccc(O)cc2)cc1,–
